In patent US20040019092A1, “Non-peptide somatostatin receptor ligands” (priority 2001, published 2004):
pIC50: −log10 of the molar value. Each block holds one compound with its values, some of them ahead of it.

What was measured:
[1] = molecular target: T1, human sst2 receptor sub-type (Homo sapiens, UniProt P30874); assay: In vitro binding, human sst2 receptor sub-type (SSTR2); settings: Tables 8/9: Bind SSTR2 nM
T1 construct: host or cells: SRIF receptor expressing cell cultures (general statement only)
Procedure: The in vitro binding affinities for rat cortex SRIF receptors and the human sst2 receptor sub-type was assessed. Further the in vitro inhibition of the GHRH induced GH secretion in primary cultures of rat pituitary cells as well as the in vivo inhibition of GH secretion in the rat after systemic or enteral application was studied. […] Therefore, the in vivo activities of the compounds in rats with respect to inhibition of growth hormone release was also assessed. Most compounds selected were tested by enteral—intraduodenal (i.d.) application. For determination of the absolute activity and for the calculation of an enteral bioavailability, single subcutaneous (s.c.) application of intravenous (i.v.) infusion was used.

[2] = test system: GH secretion; assay: GH secretion in vivo, rat, intraduodenal (enteral) application, 1 h (basal); settings: for GH vivo i.d. 1 h ID50: basal GH secretion, 1 h after intraduodenal application, mostly approximate ID50 from single 10 mg/kg dose, Ø = no effect at this dose, > = extrapolated value
Procedure: (§1) Animals, anesthesia: Male rats of a Sprague Dawley strain (Ico:OFA-SD, Iffa-Credo, F-Lyon) of 200-300 g body weight were used. They were kept under standardized conditions and were anesthetized with pentobarbital-sodium (Siegfried, CH Zofingen), 60 mg/kg i.p. for subcutaneous and intraduodenal applications. Animals designed for an infusion experiment were anesthetized with urethane (Siegfried, CH Zofingen), 1.2 g/kg i.p.
(§2) Compounds: The compounds were dissolved, optionally with the aid of one or more of the following adjuncts:
(§3) Stock solutions of the compounds were prepared in water with the addition of the necessary adjunct(s). Further dilutions were prepared allowing 5 mL/kg for subcutaneous application, 2 mL for intraduodenal (i.d.) application or 4.5 mL/kg for intravenous infusion. The solutions for the intravenous application/infusion were made isotonic by addition of glucose to a final concentration of 5%.
(§4) Applications were made, or, in the case of infusion, started, approximately 10 minutes after induction of anesthesia. No further treatment followed subcutaneous or intraduodenal application. Ten, twenty-five and fifty-five minutes after start of the intravenous infusion the GH secretion was stimulated with repeated intravenous injections of the potent GHRH analog, D-Ala2 GHRH1-29NH2, 1 μg/kg.
(§5) One hour after subcutaneous or intraduodenal application of the compounds, blood was collected from the trunk after decapitation. In the case of application by infusion, 5 minutes after each application of GHRH, a blood sample of 0.8 mL was taken from a V. jugularis and mixed with EDTA (Eppendorf tubes TOM14, Milian, CH Geneva). The blood samples were kept on ice and spun in a cooled centrifuge. The serum or plasma was separated and frozen.
(§6) Statistics: In each experiment, 4-5 animals were used per dose, with 6 to 8 animals as the control group that received the vehicle. The GH serum/plasma levels were averaged, the mean of the treated groups expressed in percent of the control group and the ID50-value for the inhibition of the secretion was determined graphically (log-probit) for each experiment. In most experiments with enteral (intraduodenal) application only 1 dose, 10 mg/kg, was given. […] Only inhibitions between 20 and 80% were considered reliable.
(§7) Two to four experiments were performed. In the case of proper dose response curves, allowing the determination of an ID50 values were averaged logarithmically. In the cases of single dose-experiments, the GH value in percent of control were averaged logarithmically and the ID50 for this value was taken from the table. ID50 values determined at the different time points during the infusion were averaged and this value was included in the tables.

[3] = test system: GHRH stimulated GH secretion; assay: GH secretion in vivo, rat, intravenous infusion with repeated GHRH stimulation; settings: for GH vivo Inf + GHRH ID50 (mean of time points): urethane, i.v. infusion, GHRH stimulated; for INFUS. + GHRH ID50 MEAN: Table 4, mean of infusion time points; for INFUS. + GHRH ID50 15′ / INFUS. + GHRH ID50 30′ / INFUS. + GHRH ID50 60′: Table 4, urethan; for INFUS. + GHRH ID50 15′: 15′ of infusion; for INFUS. + GHRH ID50 30′: 30′ of infusion; for INFUS. + GHRH ID50 60′: 60′ of infusion
Procedure: as §1, §3, §4, §5, §6, §7

[4] = test system: GH secretion; assay: Unanesthetized estradiol primed male rats, oral by gavage: GH; format: in vivo, rat; settings: estradiol implant male rats, oral by gavage, 1 hour
Procedure: The inhibitory effect of the compounds on GH release may also be examined after oral application to male rats with oestradiol implants. This test is carried out as follows.
A loop (length 50 mmØ3 mm) of silastic with 50 mg of oestradiol is implanted under the dorsal skin of anaesthetized male OFA rats that have a weight of ca. 300 g. At various times (1 to 6 months later), these animals, in a fasted state, are used repeatedly for tests. The test substances are active in this test at doses from 0.1 to 5 mg/kg, when GH level in the blood serum is determined by radio-immunoassay 1 and 2 hours after oral administration.
(§8) Table 5 summarizes the results obtained in the estradiol primed male rats that received the compounds orally by gavage. These rats have stabilized elevated GH plasma levels as well as increased prolactin levels. In contrast to normal untreated rats, who's prolactin secretion is not sensitive to the inhibitory effect of somatostain, in these rats the prolactin secretion is inhibited to a similar degree as the GH secretion. Therefore, the inhibitory effect can be measured on 2 different parameters, GH and prolactin. The mean enteral absorption and activity of the respective compounds are shown.

[5] = test system: prolactin secretion; assay: Unanesthetized estradiol primed male rats, oral by gavage: prolactin; format: in vivo, rat; settings: estradiol implant male rats, oral by gavage, 1 hour; ø = no effect at this dose
From the text: as §8

[6] = test system: GH secretion; assay: GH secretion in vivo, rat, subcutaneous application, 1 h (basal); settings: rat, basal GH secretion, 1 h after subcutaneous application
Procedure: as §1, §2, §3, §4, §5, §6, §7

T1 sequence (P30874 whole entry): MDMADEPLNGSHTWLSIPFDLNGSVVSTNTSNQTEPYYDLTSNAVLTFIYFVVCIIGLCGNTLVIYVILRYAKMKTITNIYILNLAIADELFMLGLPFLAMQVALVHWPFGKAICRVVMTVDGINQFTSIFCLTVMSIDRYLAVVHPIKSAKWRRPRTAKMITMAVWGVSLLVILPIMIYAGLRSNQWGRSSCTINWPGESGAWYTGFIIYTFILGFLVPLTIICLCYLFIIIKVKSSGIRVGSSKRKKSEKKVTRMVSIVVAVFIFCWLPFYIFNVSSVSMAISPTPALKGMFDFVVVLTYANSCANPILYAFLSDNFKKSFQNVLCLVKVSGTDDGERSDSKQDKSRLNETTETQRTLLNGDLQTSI

- pIC50 [1]: 8.60
SMILES: CN(C)C(=O)c1cc(S(=O)(=O)N2C(=O)N(CCCCCN)C(=O)C2Cc2c[nH]c3ccccc23)ccc1Oc1ccc(OC(=O)C(N)CCCCN)c(Cl)c1 (stereo not drawn) [Compound 48]
- GH inhibition by the enteral route ([2]; 10 mg/kg enteral): exhibited inhibition
- GH vivo i.d. 1 h ID50 [2]: > 15000 µg/kg
- GH vivo Inf + GHRH ID50 (mean of time points) [3]: 32.00 µg/kg/h
- GH 1 H ID50 [4]: 11000 µg/kg
- MEAN ID50 (GH and prolactin) [4]: 9950 µg/kg
- PROLACT 1 H ID50 [5]: 9000 µg/kg

- pIC50 [1]: 9.74
SMILES: Cc1cccc2c(CC3C(=O)N(CCCCCN)C(=O)N3S(=O)(=O)c3ccc(Oc4ccc(O)c(Cl)c4)c(C(=O)N(C)C)c3)c[nH]c12 (single isomer, unassigned; (+)) [(+)-43]
- GH vivo s.c. 1 h ID50 [6]: 3.0 µg/kg
- GH vivo s.c. 1 h ID50 ([6]; listed as (+)−43): 3.00 µg/kg
- GH vivo s.c. 1 h ID50 ([6]; listed as (+)−43 ch): 3.00 µg/kg
- GH vivo i.d. 1 h ID50 [2]: 4800 µg/kg
- INFUS. + GHRH ID50 MEAN [3]: 1.68 µg/kg
- INFUS. + GHRH ID50 15′ [3]: 2.28 µg/kg
- INFUS. + GHRH ID50 30′ [3]: 1.54 µg/kg
- INFUS. + GHRH ID50 60′ [3]: 1.35 µg/kg
- GH vivo Inf + GHRH ID50 (mean of time points) [3]: 1.68 µg/kg/h

SMILES: C[C@H](N)C(=O)NCC(=O)N[C@H]1CSSC[C@@H](C(=O)O)NC(=O)[C@H](CO)NC(=O)[C@H]([C@@H](C)O)NC(=O)[C@H](Cc2ccccc2)NC(=O)[C@H]([C@@H](C)O)NC(=O)[C@H](CCCCN)NC(=O)[C@H](Cc2c[nH]c3ccccc23)NC(=O)[C@H](Cc2ccccc2)NC(=O)[C@H](Cc2ccccc2)NC(=O)[C@H](CC(N)=O)NC(=O)[C@H](CCCCN)NC1=O [SRIF14, somatostatin 14, reference compound]
- INFUS. + GHRH ID50 MEAN [3]: 3.90 µg/kg
- INFUS. + GHRH ID50 15′ [3]: 6.00 µg/kg
- INFUS. + GHRH ID50 30′ [3]: 3.35 µg/kg
- INFUS. + GHRH ID50 60′ [3]: 2.90 µg/kg
